Assay results: article PMC12286210, “Immobilization of Pleurotus eryngii Laccase via a Protein–Inorganic Hybrid for Efficient Degradation of Bisphenol A as a Potent Xenobiotic” (Journal of Xenobiotics, 2025)

Test system: T1, PeLac (Pleurotus eryngii laccase)
T1 construct: gene ery3
Settings: free enzyme, partially purified; ABTS 0.01-2.0 mM; 25 °C; co-substrate O2

In the case of CCn1c(=NN=c2sc3cc(S(=O)(=O)O)ccc3n2CC)sc2cc(S(=O)(=O)O)ccc21 [ABTS], the Km is reported as 118 ± 8.9 µM.
